In patent publication US12590062B2, “PD-1/PD-L1 inhibitors” (Gilead Sciences, Inc., priority 2017, dated 2026):

Experiments:
PD-L1 = target: T1, PD-L1 (Homo sapiens, UniProt Q9NZQ7); experiment: PD-L1/PD-L1 dimerization biochemical protein-protein interaction assay (ALPHA); format: binding; settings: compound-induced PD-L1 dimerization, head prints '1 nM' (0.5 nM His-tagged PD-L1 and 0.5 nM FLAG-tagged PD-L1), read-out: AC50 PDL1 Dimer Alpha 1 nM
T1 construct: determine if they can specifically dimerize the extracellular domains of PD-L1
In short: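 ALPHA proximity assay of compound-induced dimerization of 0.5 nM His-tagged and 0.5 nM FLAG-tagged PD-L1 extracellular domains in Hepes pH 7.4 buffer, 2 h at 25 °C. Anti-His acceptor then anti-FLAG donor beads, 60 min each; AC50 from four-parameter fit.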

PD-1/PD-L1 interaction = target: T2, PD-1/PD-L1 interaction (Homo sapiens, UniProt Q9NZQ7); experiment: PD-1/PD-L1 NFAT reporter co-culture assay; format: cell-based; settings: Jurkat PD-1 NFAT-luciferase cells co-cultured with aAPC-PD-L1 CHO cells, 6 hrs at 37° C.; read-out: EC50 NFAT Luciferase
T2 construct: expressed in transfected cells; host or cells: CHO cells (aAPC-PD-L1) co-cultured with Jurkat cells overexpressing PD-1 and an NFAT-luciferase reporter
In short: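 First, CHO cells displaying anti-CD3 antibody and PD-L1 were plated overnight. Next, compound-treated PD-1 Jurkat NFAT-luciferase reporter cells in 2% FBS RPMI were added for 6 h at 37 °C. Finally, ONE-Glo luminescence was read and EC50 values fitted with a four-parameter equation.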

PD-1/PD-L1 = PD-1/PD-L1 (Homo sapiens, UniProt Q9NZQ7); experiment: PD-1/PD-L1 biochemical protein-protein interaction assay (ALPHA); format: binding; settings: 0.3 nM His tagged PD-L1, 2.5 nM biotinylated Fc-PD-1, 60 minutes at 25° C., read-out: IC50 PD-L1-PD-1 Alpha IC50-mono PD-L1-fcP-D1
In short: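 Final concentrations 0.3 nM His-tagged PD-L1 and 2.5 nM biotinylated Fc-PD-1 (extracellular domains) were reacted with compound for 60 min at 25° C in pH 7.4 Hepes/NaCl/EDTA/Tween/BSA buffer. Binding was then detected by ALPHA beads, and IC50 values were taken from four-parameter curve fitting.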

T2 sequence (Q9NZQ7 19-290): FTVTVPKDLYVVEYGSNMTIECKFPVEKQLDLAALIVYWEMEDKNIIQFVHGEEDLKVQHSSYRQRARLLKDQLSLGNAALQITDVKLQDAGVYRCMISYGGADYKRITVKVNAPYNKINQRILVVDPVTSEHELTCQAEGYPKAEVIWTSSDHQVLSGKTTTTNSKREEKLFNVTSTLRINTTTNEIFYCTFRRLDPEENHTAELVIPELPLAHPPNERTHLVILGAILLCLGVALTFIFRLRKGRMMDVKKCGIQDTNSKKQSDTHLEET
T1 sequence (Q9NZQ7 19-238 limits assumed): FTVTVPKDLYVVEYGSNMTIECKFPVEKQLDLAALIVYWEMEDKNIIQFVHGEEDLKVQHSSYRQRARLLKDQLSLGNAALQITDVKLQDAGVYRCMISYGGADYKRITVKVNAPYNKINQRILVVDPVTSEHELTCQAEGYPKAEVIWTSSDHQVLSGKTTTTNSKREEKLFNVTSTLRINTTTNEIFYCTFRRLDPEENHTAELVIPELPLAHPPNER
T1 sequence (Q9NZQ7 19-238 limits assumed): as above
PD-1/PD-L1, sequence (Q9NZQ7 19-238 limits assumed): as above

Row | AC50 (PD-L1) | EC50 (PD-1/PD-L1 interaction) | IC50 (PD-1/PD-L1) | SMILES
1 | 296 nM | 1730 nM | 1.19 nM | COc1nc(-c2cccc(-c3cccc(-c4ccc5cc(CN(C)C)[nH]c5c4)c3Cl)c2Cl)ccc1CNC[C@@H]1CCC(=O)N1 [Example 607]
2 | 214 nM | ≥ 50000 nM | 1.72 nM | COc1nc(-c2cccc(-c3cccc(-c4ccc5[nH]cc(CN(C)C)c5c4)c3Cl)c2Cl)ccc1CNC[C@@H]1CCC(=O)N1 [Example 608]
3 | 143 nM | 541 nM | 0.387 nM | COc1nc(-c2cccc(-c3cccc(-c4ccc5c(C[N+](C)(C)C)c[nH]c5c4)c3Cl)c2Cl)ccc1CNC[C@@H]1CCC(=O)N1 [Example 609]
4 | 105 nM | ≥ 50000 nM | 0.746 nM | COc1nc(-c2cccc(-c3cccc(-c4ccc5c(CN(C)C)c[nH]c5c4)c3Cl)c2Cl)ccc1CNC[C@@H]1CCC(=O)N1 [Example 610]
5 | 408 nM | 223 nM | 0.482 nM | COc1nc(-c2cccc(-c3cccc(-c4ccc5c(c4)[C@H](O)C[C@@H]5N)c3Cl)c2Cl)ccc1CNC[C@@H]1CCC(=O)N1 [Example 611]
6 | 729 nM | ≥ 50000 nM | 2.45 nM | COc1nc(-c2cccc(-c3cccc(-c4ccc5c(c4)CCC(N)C5)c3Cl)c2Cl)ccc1CN1CC2(CCC(=O)N2)C1 (stereo not drawn) [Example 612]
7 | 158 nM | 484 nM | 1.38 nM | COc1nc(-c2cccc(-c3cccc(-c4ccc5c(c4)C[C@@H](N)C5)c3Cl)c2Cl)ccc1CN1CC2(CCC(=O)N2)C1 [Example 613]
8 | ≥ 10000 nM | ≥ 50000 nM | 11.5 nM | COc1nc(-c2cccc(-c3cccc(-c4ccc5ncc(CN6CC7(CCC(=O)N7)C6)n5c4)c3Cl)c2Cl)ccc1CN1CC2(CCC(=O)N2)C1 [Example 614]
9 | ≥ 10000 nM | ≥ 50000 nM | 7.88 nM | COc1nc(-c2cccc(-c3cccc(-c4ccc5ncc(CN6CC(O)C6)n5c4)c3Cl)c2Cl)ccc1CN1CC(O)C1 [Example 615]
10 | 156 nM | ≥ 50000 nM | 0.295 nM | COc1nc(-c2cccc(-c3cccc(-c4ccn5cc(CN6CC(O)C6)nc5c4)c3Cl)c2Cl)ccc1CN1CC(O)C1 [Example 616]
11 | 265 nM | ≥ 50000 nM | 0.17 nM | COc1nc(-c2cccc(-c3cccc(-c4ccn5cc(CN(C)C)nc5c4)c3Cl)c2Cl)ccc1CN(C)C [Example 617]
12 | 389 nM | ≥ 50000 nM | 0.224 nM | COc1nc(-c2cccc(-c3cccc(-c4ccn5cc(CN6CC7(CCC(=O)N7)C6)nc5c4)c3Cl)c2Cl)ccc1CN1CC2(CCC(=O)N2)C1 [Example 618]
13 | 118 nM | 187 nM | 0.159 nM | COc1nc(-c2cccc(-c3cccc(-c4ccn5cc(CNC[C@@H]6CCC(=O)N6)nc5c4)c3Cl)c2Cl)ccc1CNC[C@@H]1CCC(=O)N1 [Example 619]
14 | ≥ 10000 nM | ≥ 50000 nM | 2.84 nM | COc1nc(-c2cccc(-c3cccc(-c4ccc5ncc(CNCCO)n5c4)c3Cl)c2Cl)ccc1CNCCO [Example 620]
15 | ≥ 10000 nM | ≥ 50000 nM | 1.04 nM | COc1nc(-c2cccc(-c3cccc(-c4ccc5ncc(CNC[C@@H](O)CC(=O)O)n5c4)c3Cl)c2Cl)ccc1CNC[C@@H](O)CC(=O)O [Example 621]
16 | ≥ 10000 nM | ≥ 50000 nM | 0.567 nM | COc1nc(-c2cccc(-c3cccc(-c4ccc5ncc(CNC[C@@H]6CCC(=O)N6)n5c4)c3Cl)c2Cl)ccc1CNC[C@@H]1CCC(=O)N1 [Example 622]
17 | ≥ 10000 nM | ≥ 50000 nM | 5.2 nM | COc1nc(-c2cccc(-c3cccc(-c4ccc5c(c4)[C@H](N)CC5)c3Cl)c2Cl)ccc1C1=NCCN1 [Example 623]
18 | 20.9 nM | ≥ 50000 nM | 0.109 nM | COc1nc(-c2cccc(-c3cccc(-c4ccc5c(c4)CCC5N)c3Cl)c2Cl)ccc1C1=NCCN1 (stereo not drawn) [Example 624]
19 | 98.2 nM | ≥ 50000 nM | 0.238 nM | COc1nc(-c2cccc(-c3cccc(-c4ccc5c(c4)C[C@@H](N)C5)c3Cl)c2Cl)ccc1C1=NCCN1 [Example 625]
